According to US9359308B2, “Pyrazine kinase inhibitors” (Portola Pharmaceuticals, Inc., priority 2011, dated 2016):

Biological target: T1, full length active recombinant SYK enzyme (Homo sapiens, UniProt P43405)
T1 construct: full length active recombinant SYK enzyme (Millipore, Calif.); purchased Millipore
Experiment: Inhibition of Syk tyrosine phosphorylation activity (LANCE TR-FRET kinase assay)
Assay type: biochemical
Conditions: activity in the Syk assays, class symbols
Procedure, shortened: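 IC50 was derived by non-linear regression of TR-FRET signal (Eu-W1024-PY100 donor, streptavidin-APC acceptor) read 1 h after EDTA quench. The kinase step ran 1 h at room temperature with 1 nM full-length SYK, 550 nM biotinylated DEEDYESP substrate and 100 μM ATP in Tris pH 7.5/MgCl2/DTT at 3% final DMSO.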

Q: How did the IC50 turn out when `NC(=O)c1ncc(N[C@@H]2CCCC[C@@H]2N)nc1Nc1cnn(C2CC2)c1` [Example 258, 5-((1R,2S)-2-aminocyclohexylamino)-3-(1-cyclopropyl-1H-pyrazol-4-ylamino)pyrazine-2-carboxamide] was run?
A: 10 to 100 nM

Q: For `CC(C)(C)C[C@@H](Nc1cnc(C(N)=O)c(Nc2cnn(C3CC3)c2)n1)C(N)=O` [Example 259, (R)-5-(1-amino-4,4-dimethyl-1-oxopentan-2-ylamino)-3-(1-cyclopropyl-1H-pyrazol-4-ylamino)pyrazine-2-carboxamide], which IC50 is on record?
A: 10 to 100 nM

Q: `CC[C@@H](Nc1cnc(C(N)=O)c(Nc2cnn(C3CC3)c2)n1)C(N)=O` [Example 260, (R)-5-(1-amino-1-oxobutan-2-ylamino)-3-(1-cyclopropyl-1H-pyrazol-4-ylamino)pyrazine-2-carboxamide] was tested. Which IC50 did it give?
A: 100 to 1000 nM

Q: With `CC(C)(C)C[C@@H](Nc1cnc(C(N)=O)c(Nc2snc3sccc23)n1)C(N)=O` [Example 261, (R)-5-(1-amino-4,4-dimethyl-1-oxopentan-2-ylamino)-3-(thieno[2,3-c]isothiazol-3-ylamino)pyrazine-2-carboxamide] as the molecule, how does the IC50 read?
A: 1 to 10 nM

Q: How did the IC50 turn out when `NC(=O)c1ncc(N[C@@H]2CCCC[C@@H]2N)nc1Nc1cnn(-c2ccccc2)c1` [Example 262, 5-((1R,2S)-2-aminocyclohexylamino)-3-(1-phenyl-1H-pyrazol-4-ylamino)pyrazine-2-carboxamide] was run?
A: < 1 nM

Q: For `NC(=O)c1ncc(N[C@@H]2CCCC[C@@H]2N)nc1Nc1ccnc(F)c1` [Example 263, 5-((1R,2S)-2-aminocyclohexylamino)-3-(2-fluoropyridin-4-ylamino)pyrazine-2-carboxamide], which IC50 is on record?
A: 1 to 10 nM

Q: How did the IC50 turn out when `CC[C@@H](Nc1cnc(C(N)=O)c(Nc2ccnc(F)c2)n1)C(N)=O` [Example 264, (R)-5-(1-amino-1-oxobutan-2-ylamino)-3-(2-fluoropyridin-4-ylamino)pyrazine-2-carboxamide] was run?
A: 10 to 100 nM

Q: With `CC(C)(C)C[C@@H](Nc1cnc(C(N)=O)c(Nc2ccnc(F)c2)n1)C(N)=O` [Example 265, (R)-5-(1-amino-4,4-dimethyl-1-oxopentan-2-ylamino)-3-(2-fluoropyridin-4-ylamino)pyrazine-2-carboxamide] as the molecule, how does the IC50 read?
A: 1 to 10 nM

Q: How did the IC50 turn out when `Cc1cc(Nc2nc(N[C@H](CC(C)(C)C)C(N)=O)cnc2C(N)=O)sn1` [Example 266, (R)-5-(1-amino-4,4-dimethyl-1-oxopentan-2-ylamino)-3-(3-methylisothiazol-5-ylamino)pyrazine-2-carboxamide] was run?
A: 10 to 100 nM

Q: With `NC(=O)c1ncc(N[C@@H]2CCCC[C@@H]2N)nc1Nc1snc2ccsc12` [Example 267, 5-((1R,2S)-2-aminocyclohexylamino)-3-(thieno[3,2-c]isothiazol-3-ylamino)pyrazine-2-carboxamide] as the molecule, how does the IC50 read?
A: 1 to 10 nM

Q: For `CC[C@@H](Nc1cnc(C(N)=O)c(Nc2snc3ccsc23)n1)C(N)=O` [Example 268, (R)-5-(1-amino-1-oxobutan-2-ylamino)-3-(thieno[3,2-c]isothiazol-3-ylamino)pyrazine-2-carboxamide], which IC50 is on record?
A: 1 to 10 nM

Q: For `CC[C@@H](Nc1cnc(C(N)=O)c(Nc2snc3ccccc23)n1)C(N)=O` [Example 269, (R)-5-(1-amino-1-oxobutan-2-ylamino)-3-(benzo[c]isothiazol-3-ylamino)pyrazine-2-carboxamide], which IC50 is on record?
A: < 1 nM

Q: For `NC(=O)c1ncc(N[C@@H]2CCCC[C@@H]2N)nc1Nc1snc2ccccc12` [Example 270, 5-((1R,2S)-2-aminocyclohexylamino)-3-(benzo[c]isothiazol-3-ylamino)pyrazine-2-carboxamide], which IC50 is on record?
A: < 1 nM

Q: How did the IC50 turn out when `CC[C@@H](Nc1cnc(C(N)=O)c(Nc2snc3sccc23)n1)C(N)=O` [Example 271, (R)-5-(1-amino-1-oxobutan-2-ylamino)-3-(thieno[2,3-c]isothiazol-3-ylamino)pyrazine-2-carboxamide] was run?
A: < 1 nM

Q: For `Cc1cccc(Nc2nc(N[C@@H]3CCCC[C@@H]3N)cnc2C(N)=O)c1` [Example 275, 5-((1R,2S)-2-aminocyclohexylamino)-3-(m-tolylamino)pyrazine-2-carboxamide], which IC50 is on record?
A: < 1 nM
